Laboratory results reported in patent publication US9492805B2, “Initiated chemical vapor deposition of vinyl polymers for the encapsulation of particles” (Massachusetts Institute of Technology, priority 2005, dated 2016).

Test: Release of ibuprofen from pellets of 25 μm microcrystals in pH buffers, light absorption at 220 nm
Format: physicochemical
Conditions: pH 7.4
Description: In another example, 25 μm ibuprofen microcrystals were encapsulated with the iCVD P(MAA-EDMA) copolymer and likewise ibuprofen release was tracked over time at different pH conditions. FIG. 26a gives the time release profiles, comparing uncoated and coated ibuprofen at pH 1.2 and 7.4. […] This enhanced protection in acids would be important for drugs such as ibuprofen and other non-steroidal anti-inflammatory drugs that are known to cause stomach ulceration and hemorrhaging, leading to mucosal damage and severe blood loss with acute dosage and prolonged administration. [S. E. Gabriel, L. Jaakkimainen, C. Bombardier, Ann. Intern. Med. 1991, 115, 787-796; and [ M. M. Wolfe, D. R. Lichtenstein, G. Singh, N. Engl. J. Med. 1999, 340, 1888-1899.] The increase in drug dissolution and activity by using finer drug particles would likely exacerbate this problem. […]
Release Measurements. […] For fluorescein, release was monitored at 490 nm, comparing fluorescein layered on silicon substrates that were exposed or encapsulated with an iCVD P(MAA-EDMA) coating. For ibuprofen, 25 μm ibuprofen microcrystals (DuPont), that were bare or encapsulated with an iCVD P(MAA-EDMA) coating, were compressed into pellets and their release monitored at 220 nm. Absorption was measured on a Varian Cary 6000i.

## CC(C)Cc1ccc(C(C)C(=O)O)cc1 (stereo not shown) [ibuprofen]
  release of ibuprofen at near neutral pH: relatively fast
